# Measured values taken from US10112941B2, “Tricyclic compounds as anticancer agents” (BRISTOL-MYERS SQUIBB COMPANY, priority 2013, dated 2018).
# Target: BRD4 (Homo sapiens, UniProt O60885)
# Test: Time Resolved Fluorescence Resonance Energy Transfer (TR-FRET) binding assay, BRD4
# Conditions: one of the FRET assays described; read-out: FRET BRD4 IC50
row,SMILES,IC50 [nM]
1,"[2H]C([2H])([2H])c1nnn(C)c1-c1cnc2c3c(N)ccc(S(C)(=O)=O)c3n([C@H](c3ccccc3)C3CCOCC3)c2c1 [Example 227, 6-Methanesulfonyl-3-[4-(^2H3)methyl-1-methyl-1H-1,2,3-triazol-5-yl]-5-[(S)-oxan-4-yl(phenyl)methyl]-5H-pyrido[3,2-b]indol-9-amine]",< 5
2,"[2H]C([2H])([2H])c1nnn(C)c1-c1cnc2c3c(NS(=O)(=O)CC(F)(F)F)ccc(S(C)(=O)=O)c3n([C@H](c3ccccc3)C3CCOCC3)c2c1 [Example 228, 2,2,2-Trifluoro-N-{6-methanesulfonyl-3-[4-(^2H3)methyl-1-methyl-1H-1,2,3-triazol-5-yl]-5-[(S)-oxan-4-yl(phenyl)methyl]-5H-pyrido[3,2-b]indol-9-yl}ethane-1-sulfonamide]",< 5
3,"[2H]C([2H])([2H])c1nnn(C)c1-c1cnc2c3c(OCC(F)F)ccc(S(C)(=O)=O)c3n([C@H](c3ccccc3)C3CCOCC3)c2c1 [Example 229, 5-[9-(2,2-Difluoroethoxy)-6-methanesulfonyl-5-[(S)-oxan-4-yl(phenyl)methyl]-5H-pyrido[3,2-b]indol-3-yl]-4-(^2H3)methyl-1-methyl-1H-1,2,3-triazole]",< 5
4,"[2H]C([2H])([2H])c1nnn(C)c1-c1cnc2c3c(OCC(C)(F)F)ccc(S(C)(=O)=O)c3n([C@H](c3ccccc3)C3CCOCC3)c2c1 [Example 230, 5-[9-(2,2-Difluoropropoxy)-6-methanesulfonyl-5-[(S)-oxan-4-yl(phenyl)methyl]-5H-pyrido[3,2-b]indol-3-yl]-4-(^2H3)methyl-1-methyl-1H-1,2,3-triazole]",< 5
5,"[2H]C([2H])([2H])c1nnn(C)c1-c1cnc2c3c(F)ccc(S(C)(=O)=O)c3n([C@H](c3ccccc3F)C3CCOCC3)c2c1 [Example 231, 5-{9-Fluoro-5-[(S)-(2-fluorophenyl)(oxan-4-yl)methyl]-6-methanesulfonyl-5H-pyrido[3,2-b]indol-3-yl}-4-(^2H3)methyl-1-methyl-1H-1,2,3-triazole]",< 5
6,"[2H]C([2H])([2H])c1nnn(C)c1-c1cnc2c3c(F)ccc(S(C)(=O)=O)c3n([C@H](c3ccc(F)cc3)C3CCOCC3)c2c1 [Example 233, 5-{9-Fluoro-5-[(S)-(4-fluorophenyl)(oxan-4-yl)methyl]-6-methanesulfonyl-5H-pyrido[3,2-b]indol-3-yl}-4-(^2H3)methyl-1-methyl-1H-1,2,3-triazole]",< 5
7,"[2H]C([2H])([2H])c1nnn(C)c1-c1cnc2c3c(F)ccc(S(C)(=O)=O)c3n(C(c3ncccc3F)C3CCOCC3)c2c1 (stereo not shown) [Example 235, 3-Fluoro-2-({9-fluoro-6-methanesulfonyl-3-[4-(^2H3)methyl-1-methyl-1H-1,2,3-triazol-5-yl]-5H-pyrido[3,2-b]indol-5-yl}(oxan-4-yl)methyl)pyridine]",< 5
8,"[2H]C([2H])([2H])c1nnn(C)c1-c1cnc2c3c(F)ccc(S(C)(=O)=O)c3n(C(c3ncccc3F)C3CCOCC3)c2c1 (stereo not shown) [Example 236, 3-Fluoro-2-({9-fluoro-6-methanesulfonyl-3-[4-(^2H3)methyl-1-methyl-1H-1,2,3-triazol-5-yl]-5H-pyrido[3,2-b]indol-5-yl}(oxan-4-yl)methyl)pyridine]",< 1500
9,"[2H]C([2H])([2H])c1nnn(C)c1-c1cnc2c3ccc(S(C)(=O)=O)cc3n(C(c3ncccc3F)C3CCC(F)(F)CC3)c2c1 (stereo not shown) [Example 239, 2-[(4,4-Difluorocyclohexyl)({7-methanesulfonyl-3-[4-(^2H3)methyl-1-methyl-1H-1,2,3-triazol-5-yl]-5H-pyrido[3,2-b]indol-5-yl})methyl]-3-fluoropyridine]",< 5
10,"[2H]C([2H])([2H])c1nnn(C)c1-c1cnc2c3ccc(S(C)(=O)=O)cc3n(C(c3ncccc3F)C3CCC(F)(F)CC3)c2c1 (stereo not shown) [Example 240, 2-[(4,4-Difluorocyclohexyl)({7-methanesulfonyl-3-[4-(^2H3)methyl-1-methyl-1H-1,2,3-triazol-5-yl]-5H-pyrido[3,2-b]indol-5-yl})methyl]-3-fluoropyridine]",< 5
11,"Cc1nnn(C)c1-c1cnc2c3ccc(C4(O)COC4)cc3n([C@H](c3ccc(F)cc3)C3CCOCC3)c2c1 [Example 243, 3-[3-(Dimethyl-1H-1,2,3-triazol-5-yl)-5-[(S)-(4-fluorophenyl)(oxan-4-yl)methyl]-5H-pyrido[3,2-b]indol-7-yl]oxetan-3-ol]",< 5
12,"Cc1noc(C)c1-c1cnc2c3ccc(C4(O)COC4)cc3n([C@H](c3ccccc3)C3CCOCC3)c2c1 [Example 244, 3-[3-(Dimethyl-1,2-oxazol-4-yl)-5-[(S)-oxan-4-yl(phenyl)methyl]-5H-pyrido[3,2-b]indol-7-yl]oxetan-3-ol]",< 5
13,"[2H]C([2H])([2H])c1nnn(C)c1-c1cnc2c3c(OCC(F)F)ccc(S(C)(=O)=O)c3n(C(c3ncccc3F)C3CCOCC3)c2c1 (stereo not shown) [Example 245, 2-{[9-(2,2-Difluoroethoxy)-6-methanesulfonyl-3-[4-(^2H3)methyl-1-methyl-1H-1,2,3-triazol-5-yl]-5H-pyrido[3,2-b]indol-5-yl](oxan-4-yl)methyl}-3-fluoropyridine]",< 5
14,"[2H]C([2H])([2H])c1nnn(C)c1-c1cnc2c3c(OCC(F)F)ccc(S(C)(=O)=O)c3n(C(c3ncccc3F)C3CCOCC3)c2c1 (stereo not shown) [Example 246, 2-{[9-(2,2-Difluoroethoxy)-6-methanesulfonyl-3-[4-(^2H3)methyl-1-methyl-1H-1,2,3-triazol-5-yl]-5H-pyrido[3,2-b]indol-5-yl](oxan-4-yl)methyl}-3-fluoropyridine]",< 1500
15,"[2H]C([2H])([2H])c1nnn(C)c1-c1cnc2c3c(OCC(C)(F)F)ccc(S(C)(=O)=O)c3n(C(c3ncccc3F)C3CCOCC3)c2c1 (stereo not shown) [Example 247, 2-{[9-(2,2-Difluoropropoxy)-6-methanesulfonyl-3-[4-(^2H3)methyl-1-methyl-1H-1,2,3-triazol-5-yl]-5H-pyrido[3,2-b]indol-5-yl](oxan-4-yl)methyl}-3-fluoropyridine]",< 5
16,"[2H]C([2H])([2H])c1nnn(C)c1-c1cnc2c3c(OCC(C)(F)F)ccc(S(C)(=O)=O)c3n(C(c3ncccc3F)C3CCOCC3)c2c1 (stereo not shown) [Example 248, 2-{[9-(2,2-Difluoropropoxy)-6-methanesulfonyl-3-[4-(^2H3)methyl-1-methyl-1H-1,2,3-triazol-5-yl]-5H-pyrido[3,2-b]indol-5-yl](oxan-4-yl)methyl}-3-fluoropyridine]",< 1500
17,"Cc1noc(C)c1-c1cnc2c3ccc(CC(C)(C)O)cc3n([C@H](c3ccccc3)C3CCOCC3)c2c1 [Example 252, 1-[3-(Dimethyl-1,2-oxazol-4-yl)-5-[(S)-oxan-4-yl(phenyl)methyl]-5H-pyrido[3,2-b]indol-7-yl]-2-methylpropan-2-ol]",< 5
18,"Cc1nnn(C)c1-c1cnc2c3cc(CC(C)(C)O)ccc3n([C@H](c3ccccc3)C3CCOCC3)c2c1 [Example 255, 1-[3-(Dimethyl-1H-1,2,3-triazol-5-yl)-5-[(S)-oxan-4-yl(phenyl)methyl]-5H-pyrido[3,2-b]indol-8-yl]-2-methylpropan-2-ol]",< 5
19,"Cc1nnn(C)c1-c1cnc2c3ccc(CC(C)(C)O)cc3n([C@H](c3ccc(F)cc3)C3CCOCC3)c2c1 [Example 256, 1-[3-(Dimethyl-1H-1,2,3-triazol-5-yl)-5-[(S)-(4-fluorophenyl)(oxan-4-yl)methyl]-5H-pyrido[3,2-b]indol-7-yl]-2-methylpropan-2-ol]",< 5
20,"Cc1nnn(C)c1-c1cnc2c3c(S(C)(=O)=O)cccc3n([C@H](c3ccc(F)cc3)C3CCOCC3)c2c1 [Example 257, 5-{5-[(S)-(4-Fluorophenyl)(oxan-4-yl)methyl]-9-methanesulfonyl-5H-pyrido[3,2-b]indol-3-yl}-1,4-dimethyl-1H-1,2,3-triazole]",< 5
21,"Cc1nnn(C)c1-c1cnc2c3c(S(C)(=O)=O)cccc3n([C@H](c3ccccc3)C3CCOCC3)c2c1 [Example 259, 5-{9-Methanesulfonyl-5-[(S)-oxan-4-yl(phenyl)methyl]-5H-pyrido[3,2-b]indol-3-yl}-1,4-dimethyl-1H-1,2,3-triazole]",< 5
22,"COc1cc(C(C)(C)O)cc2c1c1ncc(-c3c(C)nnn3C)cc1n2[C@H](c1ccccc1)C1CCOCC1 [Example 260, 2-[3-(Dimethyl-1H-1,2,3-triazol-5-yl)-9-methoxy-5-[(S)-oxan-4-yl(phenyl)methyl]-5H-pyrido[3,2-b]indol-7-yl]propan-2-ol]",< 5
23,"Cc1nnn(C)c1-c1cnc2c3ccc(CC(C)(C)O)cc3n([C@H](c3ccccc3)C3CCOCC3)c2c1 [Example 261, 1-[3-(Dimethyl-1H-1,2,3-triazol-5-yl)-5-[(S)-oxan-4-yl(phenyl)methyl]-5H-pyrido[3,2-b]indol-7-yl]-2-methylpropan-2-ol]",< 5
24,"[2H]C([2H])([2H])c1nnn(C)c1-c1cnc2c3ccc(C(C)(C)O)cc3n([C@H](c3ccccc3)C3CCOCC3)c2c1 [Example 262, 2-{3-[4-(^2H3)Methyl-1-methyl-1H-1,2,3-triazol-5-yl]-5-[(S)-oxan-4-yl(phenyl)methyl]-5H-pyrido[3,2-b]indol-7-yl}propan-2-ol]",< 5
25,Cc1nnn(C)c1-c1cnc2c3ccc(S(C)(=O)=O)cc3n([C@H](c3ccccc3F)C3CCOCC3)c2c1 [Example 264],< 5
26,"[2H]C([2H])([2H])c1nnn(C)c1-c1cnc2c3c(S(C)(=O)=O)cccc3n([C@H](c3ccccc3)C3CCOCC3)c2c1 [Example 268, 5-{9-Methanesulfonyl-5-[(S)-oxan-4-yl(phenyl)methyl]-5H-pyrido[3,2-b]indol-3-yl}-4-(^2H3)methyl-1-methyl-1H-1,2,3-triazole]",< 5
27,Cc1nnn(C)c1-c1cnc2c3c(S(C)(=O)=O)cccc3n([C@H](c3ccccc3F)C3CCOCC3)c2c1 [Example 269],< 5
28,"[2H]C([2H])([2H])c1nnn(C)c1-c1cnc2c3ccc(C(C)(C)O)c(F)c3n([C@H](c3ccc(F)cc3)C3CCOCC3)c2c1 [Example 271, 2-{6-Fluoro-5-[(S)-(4-fluorophenyl)(oxan-4-yl)methyl]-3-[4-(^2H3)methyl-1-methyl-1H-1,2,3-triazol-5-yl]-5H-pyrido[3,2-b]indol-7-yl}propan-2-ol]",< 5
